Laboratory results from patent publication US12370235B2, “Synthetic, non-natural antimicrobial peptides inspired by Staphylococcus auricularis delta toxin” (University of Saskatchewan, priority 2021, dated 2025).
Ends that are not written are not given here.

Columns and labels:
[1] = test system: S. aureus / MRSA (ATCC MP-2 panel); assay type: cell-based, Staphylococcus aureus; details: for inhibition of S. aureus: MIC screen, in words
Protocol: In order to begin to characterize STIP3-1 and potential sites amenable to modification, an alanine scanning experiment was performed. A total of 16 peptides with single alanine substitutions were assessed to inform on the importance of individual residues to antimicrobial activity. […] Next a series of thirty STIP3-1 variants were designed, guided by the aforementioned alanine scan and a previous report that the central α-helical core of the S. aureus δ-toxin could be converted into AMP through the inclusion of additional lysine residues^39. The collection included ten members with single substitutions relative to STIP3-1 and others that incorporated a number of changes that were designed to increase overall and local cationic charge as well as hydrophobic character (Table 5). Each of the STIPs was screened, including STIP3-1 to STIP-31, for antibiotic activity against a methicillin-sensitive S. aureus test organism and a panel of 7 MRSA strains defined by distinct SCCmec genotypes (FIG. 2; ATCC MP-2).
Determination of minimum inhibitory concentrations. The MICs were measured for bioactive peptides identified from the initial screen. For bacterial studies, cation-adjusted Mueller Hinton (MH) broth was used as the growth medium whereas YPD was used for C. albicans. Bacterial cultures were diluted to a OD value of 6×10^−4 in MH broth and a 180 μl volume was mixed with 20 μl of peptide arrayed as 2-fold dilution series in a 96-well plate. For the positive control, 20 μl of sterile water was used. Plates were incubated as standing cultures overnight at 37° C. The lowest peptide concentration that resulted no observed microbial growth after an overnight treatment was defined as the MIC.

[2] = Circular dichroism spectroscopy; assay type: physicochemical; details: CD, 50% (v/v) TFE
From the text: The δ-toxins and the PSMs are characterized as α-helical peptides that form amyloid fibers^48. Although the propensity of individual peptides to form amyloids is correlated to their cytotoxicity^49, the amyloid form is not directly implicated in cell membrane disruption^50. […] CD spectroscopy was used to investigate the secondary structure of a subset of peptides within the collection (FIG. 4A, Table 5). The STIP variants adopted α-helical forms in 50% (v/v) trifluoroethanol (TFE), though unlike the full-length S. auricularis δ-toxin, they were unstructured in water. […] Specifically, peptides characterized by the greatest and least α-helical content in TFE had MICs above the highest tested threshold.
Circular dichroism spectroscopy. Peptides were dissolved in water at concentrations between 0.3 and 0.5 mg/mL. CD spectra were recorded on an Applied Photophysics Chirascan Plus CD spectrophotometer at room temperature in a 0.1 cm path-length quartz cuvette. Spectra were recorded from 180 to 260 nm.

S. aureus ATCC 29213 = assay: MIC, broth dilution; assay type: cell-based, Staphylococcus aureus; details: Table 5; STIP3 variants, highest concentration 100 μg/mL
Summary of the method: (§1)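 Peptides of 95% purity tested as 2-fold dilution series against bacteria diluted to OD 6×10^−4 in cation-adjusted Mueller Hinton broth. Standing cultures incubated overnight at 37° C; MIC is the lowest concentration with no visible growth.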

[3] = test system: S. aureus ATCC 33592 (MRSA SCCmec type III); assay: MIC, broth dilution; assay type: cell-based, Staphylococcus aureus; details: Table 5; STIP3 variants, highest concentration 100 μg/mL
Summary of the method: as §1

[4] = test system: Mannheimia haemolytica ATCC 33393; assay: MIC, broth dilution; assay type: cell-based; details: Table 11; highest concentration 25 μg/mL
Summary of the method: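 Peptides (95% purity) in 2-fold dilution series were mixed with M. haemolytica diluted to OD 6×10^−4 in cation-adjusted Mueller Hinton broth and incubated standing overnight at 37 °C. MIC was the lowest concentration with no visible growth.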

[5] = test system: S. aureus ATCC BAA-44 (MRSA SCCmec type I); assay: MIC, broth dilution; assay type: cell-based, Staphylococcus aureus; details: Table 5; STIP3 variants, highest concentration 100 μg/mL
Summary of the method: as §1

[6] = test system: S. aureus ATCC BAA-2313 (MRSA SCCmec type XI); assay: MIC, broth dilution; assay type: cell-based, Staphylococcus aureus; details: Table 5; STIP3 variants, highest concentration 100 μg/mL
Summary of the method: as §1

[7] = test system: S. aureus ATCC BAA-42 (MRSA SCCmec type VI); assay: MIC, broth dilution; assay type: cell-based, Staphylococcus aureus; details: Table 5; STIP3 variants, highest concentration 100 μg/mL
Summary of the method: as §1

[8] = test system: S. aureus ATCC BAA-1683 (MRSA SCCmec type IV); assay: MIC, broth dilution; assay type: cell-based, Staphylococcus aureus; details: Table 5; STIP3 variants, highest concentration 100 μg/mL
Summary of the method: as §1

[9] = test system: S. aureus ATCC BAA-2094 (MRSA SCCmec type V); assay: MIC, broth dilution; assay type: cell-based, Staphylococcus aureus; details: Table 5; STIP3 variants, highest concentration 100 μg/mL
Summary of the method: as §1

[10] = test system: S. aureus ATCC BAA-41 (MRSA SCCmec type II); assay: MIC, broth dilution; assay type: cell-based, Staphylococcus aureus; details: Table 5; STIP3 variants, highest concentration 100 μg/mL
Summary of the method: as §1

C. albicans Y537 = assay: MIC, YPD broth; assay type: cell-based, Candida albicans; details: Table 8
C. albicans MYA-2876 = assay: MIC, YPD broth; assay type: cell-based, Candida albicans; details: Table 8
Summary of the method: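 Minimum inhibitory concentrations against Candida albicans were determined in YPD broth (10 g/L yeast extract, 20 g/L peptone, 20 g/L dextrose) using peptides of 95% purity. A 180 μl volume of diluted yeast was combined with 20 μl of peptide in a 2-fold dilution series in 96-well plates, with sterile water as control, then incubated standing overnight at 37° C.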

[11] = test system: Candida duobushaemulonii AR 391; assay: MIC, YPD broth, CDC and FDA AR Candida isolate panel; assay type: cell-based; details: Table 9 below the line: only 200 or 100 μg/mL tested; values reported as 100 are ≤100 μg/mL
Summary of the method: (§2)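 Inhibitory concentration was assigned over a 2-fold peptide dilution range after incubation without shaking at 37° C overnight; inoculum was set to optical density […] and water-only wells served as control.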

Kodamae ohmeri AR 396 = assay: as above; assay type: cell-based; details: Table 9 below the line: only 200 or 100 μg/mL tested; values reported as 100 are ≤100 μg/mL
Summary of the method: as §2

[12] = test system: Candida duobushaemulonii AR 392; assay: as above; assay type: cell-based; details: Table 9 below the line: only 200 or 100 μg/mL tested; values reported as 100 are ≤100 μg/mL
Summary of the method: as §2

Candida krusei AR 397 = assay: as above; assay type: cell-based; details: Table 9 below the line: only 200 or 100 μg/mL tested; values reported as 100 are ≤100 μg/mL
Summary of the method: as §2

[13] = test system: Candida haemulonii AR 393; assay: as above; assay type: cell-based; details: Table 9 below the line: only 200 or 100 μg/mL tested; values reported as 100 are ≤100 μg/mL
Summary of the method: as §2

[14] = test system: Saccharomyces cerevisiae AR 400; assay: as above; assay type: cell-based; details: Table 9 below the line: only 200 or 100 μg/mL tested; values reported as 100 are ≤100 μg/mL
Summary of the method: as §2

[15] = test system: Candida lusitaniae AR 398; assay: as above; assay type: cell-based; details: Table 9 below the line: only 200 or 100 μg/mL tested; values reported as 100 are ≤100 μg/mL
Summary of the method: as §2

[16] = test system: Candida duobushaemulonii AR 394; assay: as above; assay type: cell-based; details: Table 9 below the line: only 200 or 100 μg/mL tested; values reported as 100 are ≤100 μg/mL
Summary of the method: as §2

[17] = test system: Candida haemulonii AR 395; assay: as above; assay type: cell-based; details: Table 9 below the line: only 200 or 100 μg/mL tested; values reported as 100 are ≤100 μg/mL
Summary of the method: as §2

[18] = test system: Saccharomyces cerevisiae AR 399; assay: as above; assay type: cell-based; details: Table 9 below the line: only 200 or 100 μg/mL tested; values reported as 100 are ≤100 μg/mL
Summary of the method: as §2

Substance | MIC S. aureus ATCC 29213 (S. aureus ATCC 29213) | MIC S. aureus ATCC 33592 (III) [3] | inhibition of S. aureus [1] | MIC (μg/mL) M. haemolytica [4] | MIC S. aureus ATCC BAA 44 (I) [5] | MIC S. aureus ATCC BAA 2313 (XI) [6] | MIC S. aureus ATCC BAA 42 (VI) [7] | MIC S. aureus ATCC BAA 1683 (IV) [8] | MIC S. aureus ATCC BAA 2094 (V) [9] | MIC S. aureus ATCC BAA 41 (II) [10] | MIC C. albicans Y537 (C. albicans Y537) | MIC C. albicans MYA-2876 (C. albicans MYA-2876) | MIC (μg/mL) Candida duobushaemulonii AR 391 [11] | MIC (μg/mL) Kodamae ohmeri AR 396 (Kodamae ohmeri AR 396) | MIC (μg/mL) Candida duobushaemulonii AR 392 [12] | MIC (μg/mL) Candida krusei AR 397 (Candida krusei AR 397) | MIC (μg/mL) Candida haemulonii AR 393 [13] | MIC (μg/mL) Saccharomyces cerevisiae AR 400 [14] [µg/mL] | MIC (μg/mL) Candida lusitaniae AR 398 [15] [µg/mL] | MIC (μg/mL) Candida duobushaemulonii AR 394 [16] | further results
TVGGLVKWILKTVKKFA-NH2 [STIP3-29-D3] | > (no inhibition was observed at the highest concentration of peptide tested: 100 μg/mL for the STIP3 variants) | > (no inhibition was observed at the highest concentration of peptide tested: 100 μg/mL for the STIP3 variants) | – | – | – | – | – | – | – | – | – | – | – | – | – | – | – | – | – | – | fold increase of MIC relative to STIP3-29 [1]: greater than 16 fold; α helicity (%) [2]: 32%
TVKFLVKWILKWVAKFA [STIP3-25, TVKFLVKWILKWVAKFA] | > (no inhibition was observed at the highest concentration of peptide tested: 100 μg/mL for the STIP3 variants) | > (no inhibition was observed at the highest concentration of peptide tested: 100 μg/mL for the STIP3 variants) | incapable of inhibiting S. aureus | > (> symbol indicates that no inhibition was observed at the highest concentration of peptide tested: 25 μg/mL) | > (no inhibition was observed at the highest concentration of peptide tested: 100 μg/mL for the STIP3 variants) | > (no inhibition was observed at the highest concentration of peptide tested: 100 μg/mL for the STIP3 variants) | > (no inhibition was observed at the highest concentration of peptide tested: 100 μg/mL for the STIP3 variants) | > (no inhibition was observed at the highest concentration of peptide tested: 100 μg/mL for the STIP3 variants) | > (no inhibition was observed at the highest concentration of peptide tested: 100 μg/mL for the STIP3 variants) | > (no inhibition was observed at the highest concentration of peptide tested: 100 μg/mL for the STIP3 variants) | 25 µg/mL | 25 µg/mL | > (values below the line were determined using two concentrations of peptide 200 or 100 μg/mL) | > (values below the line were determined using two concentrations of peptide 200 or 100 μg/mL) | > (values below the line were determined using two concentrations of peptide 200 or 100 μg/mL) | > (values below the line were determined using two concentrations of peptide 200 or 100 μg/mL) | > (values below the line were determined using two concentrations of peptide 200 or 100 μg/mL) | ≤ 100 | ≤ 100 | > (values below the line were determined using two concentrations of peptide 200 or 100 μg/mL) | MIC (μg/mL) Candida haemulonii AR 395 [17]: > (values below the line were determined using two concentrations of peptide 200 or 100 μg/mL); MIC (μg/mL) Saccharomyces cerevisiae AR 399 [18]: ≤ 100 µg/mL
TVKVLVKWILKVVAKFA [STIP3-26, TVKVLVKWILKVVAKFA] | > (no inhibition was observed at the highest concentration of peptide tested: 100 μg/mL for the STIP3 variants) | > (no inhibition was observed at the highest concentration of peptide tested: 100 μg/mL for the STIP3 variants) | incapable of inhibiting S. aureus | > (> symbol indicates that no inhibition was observed at the highest concentration of peptide tested: 25 μg/mL) | > (no inhibition was observed at the highest concentration of peptide tested: 100 μg/mL for the STIP3 variants) | > (no inhibition was observed at the highest concentration of peptide tested: 100 μg/mL for the STIP3 variants) | > (no inhibition was observed at the highest concentration of peptide tested: 100 μg/mL for the STIP3 variants) | > (no inhibition was observed at the highest concentration of peptide tested: 100 μg/mL for the STIP3 variants) | > (no inhibition was observed at the highest concentration of peptide tested: 100 μg/mL for the STIP3 variants) | > (no inhibition was observed at the highest concentration of peptide tested: 100 μg/mL for the STIP3 variants) | > (> symbol indicates that no inhibition was observed at the highest concentration of peptide tested: 100 μg/mL) | > (> symbol indicates that no inhibition was observed at the highest concentration of peptide tested: 100 μg/mL) | > (values below the line were determined using two concentrations of peptide 200 or 100 μg/mL) | > (values below the line were determined using two concentrations of peptide 200 or 100 μg/mL) | > (values below the line were determined using two concentrations of peptide 200 or 100 μg/mL) | > (values below the line were determined using two concentrations of peptide 200 or 100 μg/mL) | > (values below the line were determined using two concentrations of peptide 200 or 100 μg/mL) | ≤ 100 | ≤ 100 | > (values below the line were determined using two concentrations of peptide 200 or 100 μg/mL) | MIC (μg/mL) Candida haemulonii AR 395 [17]: > (values below the line were determined using two concentrations of peptide 200 or 100 μg/mL); MIC (μg/mL) Saccharomyces cerevisiae AR 399 [18]: ≤ 100 µg/mL
